TGI data for four compounds are collected here from PubChem BioAssay (NCI).

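Interpolation was linear, between the two tested concentrations surrounding the appropriate level; five concentrations were tested over 48 hours in 96-well plates. At the TGI there is no net growth.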

In the first test the test system is 786-0 renal. Kind of test: DTP human tumour cell line panel, 48 h.
As for `COc1ccc(C2c3cc(OC)c(OC)cc3C(Cc3ccc([N+](=O)[O-])cc3)C2c2ccc([N+](=O)[O-])cc2)cc1OC` (stereo unspecified), the TGI (as a rule, the concentration giving total growth inhibition) is above 100 µM.

Turning to `O=C1c2ccc3c4ccccc4n(Cc4ccccc4)c3c2C(=O)N1c1ccccc1`, the total growth inhibition concentration (TGI) stood at 26.7 µM. In other words, the double-digit micromolar range.

Take `O=C1[C@H]2ON(c3ccccc3)C(c3ccc(Cl)cc3)[C@H]2C(=O)N1c1ccc(Cc2ccc(N3C(=O)[C@@H]4ON(c5ccccc5)C(c5ccc(Cl)cc5)[C@@H]4C3=O)cc2)cc1` (stereo partly specified): the TGI was above 100 µM.

As to `Oc1cc(C2OCCCO2)cc(O)c1O`, the total growth inhibition concentration (TGI) is above 100 µM.

In a further test the test system is A498 renal. Nature of the test: DTP human tumour cell line panel, 48 h.
With `COc1ccc(C2c3cc(OC)c(OC)cc3C(Cc3ccc([N+](=O)[O-])cc3)C2c2ccc([N+](=O)[O-])cc2)cc1OC` (stereo unspecified), the concentration for total growth inhibition (TGI) was above 100 µM.

In turn, `O=C1c2ccc3c4ccccc4n(Cc4ccccc4)c3c2C(=O)N1c1ccccc1` showed a concentration for total growth inhibition (TGI) of 45.9 µM.

With `O=C1[C@H]2ON(c3ccccc3)C(c3ccc(Cl)cc3)[C@H]2C(=O)N1c1ccc(Cc2ccc(N3C(=O)[C@@H]4ON(c5ccccc5)C(c5ccc(Cl)cc5)[C@@H]4C3=O)cc2)cc1` (stereo partly specified), the TGI was above 100 µM.

Compound `Oc1cc(C2OCCCO2)cc(O)c1O` came in with a TGI above 100 µM.

In a further test the test system is A549 NSCLC. Kind of test: DTP human tumour cell line panel, 48 h.
In turn, `COc1ccc(C2c3cc(OC)c(OC)cc3C(Cc3ccc([N+](=O)[O-])cc3)C2c2ccc([N+](=O)[O-])cc2)cc1OC` (stereo unspecified) returned a TGI above 100 µM.

`O=C1c2ccc3c4ccccc4n(Cc4ccccc4)c3c2C(=O)N1c1ccccc1`: the TGI came out at 34.9 µM.

Turning to `O=C1[C@H]2ON(c3ccccc3)C(c3ccc(Cl)cc3)[C@H]2C(=O)N1c1ccc(Cc2ccc(N3C(=O)[C@@H]4ON(c5ccccc5)C(c5ccc(Cl)cc5)[C@@H]4C3=O)cc2)cc1` (stereo partly specified), the concentration for total growth inhibition (TGI) was above 100 µM.

On to `Oc1cc(C2OCCCO2)cc(O)c1O`, for which the TGI was above 100 µM.

In the next test the test system is ACHN renal. Nature of the test: DTP human tumour cell line panel, 48 h.
In turn, `COc1ccc(C2c3cc(OC)c(OC)cc3C(Cc3ccc([N+](=O)[O-])cc3)C2c2ccc([N+](=O)[O-])cc2)cc1OC` (stereo unspecified) gave a TGI above 100 µM.

The compound `O=C1c2ccc3c4ccccc4n(Cc4ccccc4)c3c2C(=O)N1c1ccccc1` displayed a concentration for total growth inhibition (TGI) above 50.5 µM.

Regarding `O=C1[C@H]2ON(c3ccccc3)C(c3ccc(Cl)cc3)[C@H]2C(=O)N1c1ccc(Cc2ccc(N3C(=O)[C@@H]4ON(c5ccccc5)C(c5ccc(Cl)cc5)[C@@H]4C3=O)cc2)cc1` (stereo partly specified), the TGI is above 100 µM.

For `Oc1cc(C2OCCCO2)cc(O)c1O`, the TGI is above 100 µM.

For a further test, the system named is CAKI-1 renal. Kind of test: DTP human tumour cell line panel, 48 h.
In turn, `COc1ccc(C2c3cc(OC)c(OC)cc3C(Cc3ccc([N+](=O)[O-])cc3)C2c2ccc([N+](=O)[O-])cc2)cc1OC` (stereo unspecified) gave a TGI above 100 µM.

For `O=C1c2ccc3c4ccccc4n(Cc4ccccc4)c3c2C(=O)N1c1ccccc1`, the TGI is 25.1 µM. This counts as double-digit micromolar.

`O=C1[C@H]2ON(c3ccccc3)C(c3ccc(Cl)cc3)[C@H]2C(=O)N1c1ccc(Cc2ccc(N3C(=O)[C@@H]4ON(c5ccccc5)C(c5ccc(Cl)cc5)[C@@H]4C3=O)cc2)cc1` (stereo partly specified) had a concentration for total growth inhibition (TGI) above 100 µM.

`Oc1cc(C2OCCCO2)cc(O)c1O` displayed a total growth inhibition concentration (TGI) above 100 µM.

For another test, the system named is CCRF-CEM leukemia. Kind of test: DTP human tumour cell line panel, 48 h.
For `COc1ccc(C2c3cc(OC)c(OC)cc3C(Cc3ccc([N+](=O)[O-])cc3)C2c2ccc([N+](=O)[O-])cc2)cc1OC` (stereo unspecified), the TGI is above 100 µM.

`O=C1c2ccc3c4ccccc4n(Cc4ccccc4)c3c2C(=O)N1c1ccccc1`: the TGI amounted to 3.68 µM. This lies in the single-digit micromolar range.

Compound `O=C1[C@H]2ON(c3ccccc3)C(c3ccc(Cl)cc3)[C@H]2C(=O)N1c1ccc(Cc2ccc(N3C(=O)[C@@H]4ON(c5ccccc5)C(c5ccc(Cl)cc5)[C@@H]4C3=O)cc2)cc1` (stereo partly specified) gave a total growth inhibition concentration (TGI) above 100 µM.

As to `Oc1cc(C2OCCCO2)cc(O)c1O`, the total growth inhibition concentration (TGI) was above 100 µM.

The next test concerns COLO 205 colon. Kind of test: DTP human tumour cell line panel, 48 h.
As to `COc1ccc(C2c3cc(OC)c(OC)cc3C(Cc3ccc([N+](=O)[O-])cc3)C2c2ccc([N+](=O)[O-])cc2)cc1OC` (stereo unspecified), the TGI is above 100 µM.

For `O=C1c2ccc3c4ccccc4n(Cc4ccccc4)c3c2C(=O)N1c1ccccc1`, the total growth inhibition concentration (TGI) is 11.1 µM.

Take `O=C1[C@H]2ON(c3ccccc3)C(c3ccc(Cl)cc3)[C@H]2C(=O)N1c1ccc(Cc2ccc(N3C(=O)[C@@H]4ON(c5ccccc5)C(c5ccc(Cl)cc5)[C@@H]4C3=O)cc2)cc1` (stereo partly specified): the TGI was above 100 µM.

The compound `Oc1cc(C2OCCCO2)cc(O)c1O` displayed a total growth inhibition concentration (TGI) above 100 µM.

The test system of a further test is DLD-1 colon. Nature of the test: DTP human tumour cell line panel, 48 h.
`COc1ccc(C2c3cc(OC)c(OC)cc3C(Cc3ccc([N+](=O)[O-])cc3)C2c2ccc([N+](=O)[O-])cc2)cc1OC` (stereo unspecified) yielded a TGI above 100 µM.

As for `O=C1c2ccc3c4ccccc4n(Cc4ccccc4)c3c2C(=O)N1c1ccccc1`, the TGI was determined as 37.3 µM.

The compound `O=C1[C@H]2ON(c3ccccc3)C(c3ccc(Cl)cc3)[C@H]2C(=O)N1c1ccc(Cc2ccc(N3C(=O)[C@@H]4ON(c5ccccc5)C(c5ccc(Cl)cc5)[C@@H]4C3=O)cc2)cc1` (stereo partly specified) came in with a TGI above 100 µM.

Compound `Oc1cc(C2OCCCO2)cc(O)c1O` came in with a concentration for total growth inhibition (TGI) above 100 µM.

The subject of another test is DMS 114 small cell lung. Kind of test: DTP human tumour cell line panel, 48 h.
In the case of `COc1ccc(C2c3cc(OC)c(OC)cc3C(Cc3ccc([N+](=O)[O-])cc3)C2c2ccc([N+](=O)[O-])cc2)cc1OC` (stereo unspecified), the TGI is above 100 µM.

In turn, `O=C1c2ccc3c4ccccc4n(Cc4ccccc4)c3c2C(=O)N1c1ccccc1` gave a concentration for total growth inhibition (TGI) of 34.1 µM.

For `O=C1[C@H]2ON(c3ccccc3)C(c3ccc(Cl)cc3)[C@H]2C(=O)N1c1ccc(Cc2ccc(N3C(=O)[C@@H]4ON(c5ccccc5)C(c5ccc(Cl)cc5)[C@@H]4C3=O)cc2)cc1` (stereo partly specified), the TGI is above 100 µM.

Take `Oc1cc(C2OCCCO2)cc(O)c1O`: the concentration for total growth inhibition (TGI) is above 100 µM.

A further test relates to DMS 273 small cell lung. Nature of the test: DTP human tumour cell line panel, 48 h.
As for `COc1ccc(C2c3cc(OC)c(OC)cc3C(Cc3ccc([N+](=O)[O-])cc3)C2c2ccc([N+](=O)[O-])cc2)cc1OC` (stereo unspecified), the TGI was above 100 µM.

`O=C1c2ccc3c4ccccc4n(Cc4ccccc4)c3c2C(=O)N1c1ccccc1` registered a TGI of 24.9 µM.

For the compound `O=C1[C@H]2ON(c3ccccc3)C(c3ccc(Cl)cc3)[C@H]2C(=O)N1c1ccc(Cc2ccc(N3C(=O)[C@@H]4ON(c5ccccc5)C(c5ccc(Cl)cc5)[C@@H]4C3=O)cc2)cc1` (stereo partly specified), the TGI was above 100 µM.

`Oc1cc(C2OCCCO2)cc(O)c1O` came in with a concentration for total growth inhibition (TGI) above 100 µM.

The test system of a further test is EKVX NSCLC. Nature of the test: DTP human tumour cell line panel, 48 h.
`COc1ccc(C2c3cc(OC)c(OC)cc3C(Cc3ccc([N+](=O)[O-])cc3)C2c2ccc([N+](=O)[O-])cc2)cc1OC` (stereo unspecified): the TGI was above 100 µM.

Regarding `O=C1c2ccc3c4ccccc4n(Cc4ccccc4)c3c2C(=O)N1c1ccccc1`, the TGI turned out to be 39.4 µM.

The compound `O=C1[C@H]2ON(c3ccccc3)C(c3ccc(Cl)cc3)[C@H]2C(=O)N1c1ccc(Cc2ccc(N3C(=O)[C@@H]4ON(c5ccccc5)C(c5ccc(Cl)cc5)[C@@H]4C3=O)cc2)cc1` (stereo partly specified) showed a TGI above 100 µM.

The compound `Oc1cc(C2OCCCO2)cc(O)c1O` showed a TGI above 100 µM.

For another test, the system named is HCC-2998 colon. Kind of test: DTP human tumour cell line panel, 48 h.
`COc1ccc(C2c3cc(OC)c(OC)cc3C(Cc3ccc([N+](=O)[O-])cc3)C2c2ccc([N+](=O)[O-])cc2)cc1OC` (stereo unspecified) returned a TGI above 100 µM.

`O=C1c2ccc3c4ccccc4n(Cc4ccccc4)c3c2C(=O)N1c1ccccc1` had a TGI of 37.2 µM.

For the compound `O=C1[C@H]2ON(c3ccccc3)C(c3ccc(Cl)cc3)[C@H]2C(=O)N1c1ccc(Cc2ccc(N3C(=O)[C@@H]4ON(c5ccccc5)C(c5ccc(Cl)cc5)[C@@H]4C3=O)cc2)cc1` (stereo partly specified), the TGI was above 100 µM.

`Oc1cc(C2OCCCO2)cc(O)c1O` had a TGI above 100 µM.

A further test deals with HCT-116 colon. Kind of test: DTP human tumour cell line panel, 48 h.
For the compound `COc1ccc(C2c3cc(OC)c(OC)cc3C(Cc3ccc([N+](=O)[O-])cc3)C2c2ccc([N+](=O)[O-])cc2)cc1OC` (stereo unspecified), the concentration for total growth inhibition (TGI) was above 100 µM.

Compound `O=C1c2ccc3c4ccccc4n(Cc4ccccc4)c3c2C(=O)N1c1ccccc1` showed a concentration for total growth inhibition (TGI) of 30 µM.

Compound `O=C1[C@H]2ON(c3ccccc3)C(c3ccc(Cl)cc3)[C@H]2C(=O)N1c1ccc(Cc2ccc(N3C(=O)[C@@H]4ON(c5ccccc5)C(c5ccc(Cl)cc5)[C@@H]4C3=O)cc2)cc1` (stereo partly specified) gave a TGI above 100 µM.

`Oc1cc(C2OCCCO2)cc(O)c1O` showed a TGI above 100 µM.

In another test the test system is HCT-15 colon. Kind of test: DTP human tumour cell line panel, 48 h.
For `COc1ccc(C2c3cc(OC)c(OC)cc3C(Cc3ccc([N+](=O)[O-])cc3)C2c2ccc([N+](=O)[O-])cc2)cc1OC` (stereo unspecified), the TGI was above 100 µM.

Compound `O=C1c2ccc3c4ccccc4n(Cc4ccccc4)c3c2C(=O)N1c1ccccc1` gave a TGI of 22.7 µM.

Compound `O=C1[C@H]2ON(c3ccccc3)C(c3ccc(Cl)cc3)[C@H]2C(=O)N1c1ccc(Cc2ccc(N3C(=O)[C@@H]4ON(c5ccccc5)C(c5ccc(Cl)cc5)[C@@H]4C3=O)cc2)cc1` (stereo partly specified) yielded a total growth inhibition concentration (TGI) above 100 µM.

In the case of `Oc1cc(C2OCCCO2)cc(O)c1O`, the total growth inhibition concentration (TGI) was above 100 µM.
